Data: article PMC11597478, “Kinin B1- and B2-Receptor Subtypes Contract Isolated Bovine Ciliary Muscle: Their Role in Ocular Lens Function and Intraocular Pressure Reduction” (Pharmaceuticals, 2024)
Read-outs that look alike come from different tables or passages of the source. Peptide text beside a SMILES is read from it.

Legend:
human bladder strips = conditions: second value of cell, undefined kinin receptor, ref [10], read-out: Functional potency, M/H BSTP, HP Site (human); cited from earlier work
Source text: (§1) Table 2 Ability of BK and Des-Arg^9-BK to Contract Various Tissues of Different Species or to Mobilize Intracellular Ca^2+ in human Ocular Cells. | column: M/H BSTP

mouse bladder strips = conditions: first value of cell, undefined kinin receptor, ref [10], read-out: Functional potency, M/H BSTP, HP Site (mouse); cited from earlier work
Source text: as §1

[1] = test system: recombinant B1 receptors expressed in host cells; conditions: ref [1]; read-out: binding affinity Ki, recombinant B1 receptor (rabbit); cited from earlier work
[2] = test system: recombinant B1 receptors expressed in host cells; conditions: ref [1]; read-out: binding affinity Ki, recombinant B1 receptor (mouse); cited from earlier work
[3] = test system: human ciliary muscle (hCM) cells; conditions: [Ca2+]i mobilization, first value of cell; single B2-receptor subtype; ref [2],[8]; read-out: Functional potency, hCM Cells, HP Site; cited from earlier work
Source text: (§2) Table 2 Ability of BK and Des-Arg^9-BK to Contract Various Tissues of Different Species or to Mobilize Intracellular Ca^2+ in human Ocular Cells. | column: hCM/hTM Cells

[4] = test system: human trabecular meshwork (hTM) cells; conditions: [Ca2+]i mobilization, second value of cell; single B2-receptor subtype; ref [2],[8]; read-out: Functional potency, hTM Cells, HP Site; cited from earlier work
Source text: as §2

rat whole bladder = conditions: B2-receptor-mediated contraction; ref [1],[2],[3],[18],[20],[23]; read-out: Functional potency, RWB, HP Site; cited from earlier work
Source text: Table 2 Ability of BK and Des-Arg^9-BK to Contract Various Tissues of Different Species or to Mobilize Intracellular Ca^2+ in human Ocular Cells. | column: RWB

rat uterus strips = conditions: B2-receptor-mediated contraction; ref [1],[2],[3],[18],[20],[23]; read-out: Functional potency, RUT, HP Site; cited from earlier work
Source text: Table 2 Ability of BK and Des-Arg^9-BK to Contract Various Tissues of Different Species or to Mobilize Intracellular Ca^2+ in human Ocular Cells. | column: RUT

guinea pig taenia caeci = conditions: tissue contraction, ref [17],[18], cited from earlier work
Source text: Table 2 Ability of BK and Des-Arg^9-BK to Contract Various Tissues of Different Species or to Mobilize Intracellular Ca^2+ in human Ocular Cells. | column: GPTC

[5] = test system: recombinant B1 receptors expressed in host cells; conditions: ref [1]; read-out: binding affinity Ki, recombinant B1 receptor (human); cited from earlier work
[6] = test system: bovine ciliary muscle (BCM) strips; experiment: tissue or blood; type: cell-based; conditions: for share of the maximal contraction accounted for by the first high affinity/potency phase: biphasic C-R curve, BCM strips; for Max. Tension Generated During Contraction: freshly isolated BCM strips, Krebs 37 °C, 1 g load, 7–11 concentrations (0.1 nM–10 µM), mean ± SEM, 3–8 experiments
Experimental: The methods utilized in the current studies were adapted from Lograno and Romano [13] and Ohia et al., with some minor modifications. Fresh bovine eyeballs were obtained from a local abattoir (Fisher Ham and Meat Company, Houston, TX, USA) and transported to the laboratory in ice. Whole eyeballs were placed in warm oxygenated Krebs buffer solution for 30 min to ensure equilibration before dissection of the ciliary muscle. Briefly, the anterior segment was dissected out of whole eyeballs after an incision was made at the limbus. The anterior segment containing the cornea, anterior uvea, and lens was then inverted and the lens dislodged with a probe along with the attached vitreous humor. After removal of the vitreous humor and lens, the whole ciliary muscle (comprising both longitudinal and circular portions) was quickly isolated and dissected from the scleral spur and choroid. Muscle strips of 4–5 mm in length were cut and mounted in 25 mL organ baths containing oxygenated Krebs solution at 37 °C using a silk thread linked to an isometric strain gauge under a constant load of 1g tension. The tissues were then allowed to equilibrate for 30 min. Two ciliary muscle strips were prepared from each eyeball and four to eight strips were used for each series of experiments. The composition of the Krebs solution used (mM) was NaCl, 118; KCl, 4.8; CaCl2, 2.5; KH2PO4, 1.2; NaHCO3, 25; MgSO4, 2.0; dextrose, 10 and flurbiprofen, 0.003 (pH 7.4), all purchased from Sigma-Aldrich, St. Louis, MO (USA). […] A robust response was characterized as a single contraction that consistently yielded a tension in the muscle induced by carbachol of 0.15–0.3 gm. […] Tissue strips were then thoroughly rinsed with fresh buffer solution via a series of buffer additions and drainage activities to remove any residual muscarinic agonist, and the preload was readjusted prior to starting the actual study with kininergic ligands. Concentration–response studies employed 7–11 compound concentrations (0.1 nM to 10 µM) and data from multiple experiments were collected.
The contractile responses obtained were expressed as gram tension developed and as percentages of the maximum response of each of the compounds. GraphPad Prism 4.0 Software (San Diego, CA, USA) was then used to construct the concentration–response curves for the kinins and to derive the half-maximal stimulation potencies (EC50) of each phase of the bi-phasic curves and the values tabulated as previously described.

rat ileum = conditions: B1-receptor in rat ileum, contraction; ref [25]; read-out: Functional potency, RI, HP Site; cited from earlier work
Source text: Table 2 Ability of BK and Des-Arg^9-BK to Contract Various Tissues of Different Species or to Mobilize Intracellular Ca^2+ in human Ocular Cells. | column: RI || In the current studies, both BK and Des-Arg^9-BK contracted the BCM in a biphasic fashion, indicating the involvement of both B1 and B2 receptors in the smooth muscle contraction process. Other agonist peptides related to BK also elicited similar profiles of contractility, thereby substantiating the effects of BK and Des-Arg^9-BK in this specific tissue. Furthermore, the role of both kinin receptor subtypes being responsible for contracting BCM in vitro was confirmed by sequentially recording the functional responses of the tissue in the presence of B1- and B2-receptor antagonists in numerous ...

guinea pig trachea = conditions: tissue contraction, ref [17],[18], cited from earlier work
Source text: Table 2 Ability of BK and Des-Arg^9-BK to Contract Various Tissues of Different Species or to Mobilize Intracellular Ca^2+ in human Ocular Cells. | column: GPT

human umbilical vein = conditions: B2-receptor-mediated contraction; ref [1],[2],[3],[18],[20],[23]; read-out: Functional potency, HUV, HP Site; cited from earlier work
Source text: Table 2 Ability of BK and Des-Arg^9-BK to Contract Various Tissues of Different Species or to Mobilize Intracellular Ca^2+ in human Ocular Cells. | column: HUV

cloned B2 receptor [7] = conditions: ref [1]; cited from earlier work
cloned B2 receptor [8] = conditions: ref [1]; read-out: Ki, cloned B2 receptor (rabbit); cited from earlier work
cloned B2 receptor [9] = conditions: ref [1]; read-out: Ki, cloned B2 receptor (mouse); cited from earlier work
[10] = test system: bovine aortic endothelial cells; conditions: ref [21]; cited from earlier work
Source text: Figure 2 Chemical structures of bradykinin and its key analogs and those of the selective B1- and B2-receptor antagonists. The amino acid composition and linkage to form bradykinin and its analogs (linear peptides) are depicted in the upper panel.

| SMILES | EC50 [3] | EC50 [4] | EC50 (rat uterus strips) | EC50 [6] | share of the maximal contraction accounted for by the first high affinity/potency phase [6] | Max. Tension Generated During Contraction [6] | EC50 (rat ileum) | EC50 (human umbilical vein) | other results |
| --- | --- | --- | --- | --- | --- | --- | --- | --- | --- |
| N=C(N)NCCC[C@H](NC(=O)[C@H](Cc1ccccc1)NC(=O)[C@@H]1CCCN1C(=O)[C@H](CO)NC(=O)[C@H](Cc1ccccc1)NC(=O)CNC(=O)[C@@H]1CCCN1C(=O)[C@@H]1CCCN1C(=O)[C@@H](N)CCCNC(=N)N)C(=O)O [BK, Bradykinin] (H-RPPGFSPFR-OH; N-terminus and C-terminus assumed) | 0.0024 µM | 0.001 µM | 0.003 µM | 0.0009 ± 0.0003 µM | 40–60% | 0.07 ± 0.01 gm tension | 4.89 µM | 0.009 µM | EC50 (human bladder strips): 5.1 µM; EC50 (mouse bladder strips): 1.2 µM; Ki [1]: 5 µM; Ki [2]: 0.2 µM; EC50 (rat whole bladder): 0.09 µM; EC50 (guinea pig taenia caeci; high potency site, read-out: Functional potency, GPTC, HP Site): 0.003 µM; EC50 (guinea pig taenia caeci; low potency site, read-out: Functional potency, GPTC, LP Site): 1 µM; Ki [5]: 10 µM; EC50 (guinea pig trachea; high potency site, read-out: Functional potency, GPT, HP Site): 0.02 µM; EC50 (guinea pig trachea; low potency site, read-out: Functional potency, GPT, LP Site): 4 µM |
| N=C(N)NCCC[C@H](N)C(=O)N1CCC[C@H]1C(=O)N1CCC[C@H]1C(=O)NCC(=O)N[C@@H](Cc1ccccc1)C(=O)N[C@@H](CO)C(=O)N1CCC[C@H]1C(=O)N[C@@H](Cc1ccccc1)C(=O)O [Des-Arg^9-BK, Des-Arg^9-Bradykinin] | 4.2 µM | 3.6 µM | > 1 µM | 0.03 ± 0.0019 µM | 40–60% | 0.06 ± 0.01 gm tension | 0.0186 µM | > 1 µM | Ki (cloned B2 receptor [7]): 8.1 µM; Ki (cloned B2 receptor [8]): > 1 µM; Ki (cloned B2 receptor [9]): 6.4 µM |
| CCCC[P+](CCCC)(CCCC)Cc1ccc(NC(=O)[C@H](Cc2ccc3ccccc3c2)NC(=NC2CCCCC2)NC2CCCCC2)cc1.[Cl-] [WIN-64338] |  |  |  |  |  |  |  |  | effect on cGMP production induced by Des-Arg^9-BK [10]: block the cGMP-producing effects of Des-Arg^9-BK |
